Laboratory results reported in patent US6727390B2, “Fluorous phosphines and phosphine oxides” (University of Pittsburgh, priority 2001, dated 2004).

How the values were obtained:
[1] = Liquid-liquid partition coefficients between FC-72 and organic solvents (partitioning followed by HPLC analysis); assay type: physicochemical; conditions: room temperature; for Partition coefficient FC-72/THF (P = cfluorous phase/corganic phase): 50/50 (v/v) FC-72/THF; for Partition coefficient FC-72/methanol (P = cfluorous phase/corganic phase): 50/50 (v/v) FC-72/methanol; for Partition coefficient FC-72/toluene (P = cfluorous phase/corganic phase): 50/50 (v/v) FC-72/toluene
Experimental: Liquid-liquid partition coefficients for all six phosphines between FC-72 and three organic solvents (methanol, THF, and toluene) were also measured. The procedure involved a simple partitioning followed by HPLC analysis.

| Structure (SMILES) | melting point | Partition coefficient FC-72/THF (P = cfluorous phase/corganic phase) [1] | Partition coefficient FC-72/methanol (P = cfluorous phase/corganic phase) [1] | Partition coefficient FC-72/toluene (P = cfluorous phase/corganic phase) [1] |
| --- | --- | --- | --- | --- |
| FC(F)(F)C(F)(F)C(F)(F)C(F)(F)C(F)(F)C(F)(F)CCc1ccc(P(c2ccc(CCC(F)(F)C(F)(F)C(F)(F)C(F)(F)C(F)(F)C(F)(F)F)cc2)c2ccc(CCC(F)(F)C(F)(F)C(F)(F)C(F)(F)C(F)(F)C(F)(F)F)cc2)cc1 [Compound 1a, Tris-[4-(3,3,4,4,5,5,6,6,7,7,8,8,8-tridecafluorooctyl)phenyl]phosphane] | 49.9 to 52.4 °C | 0.08 | 30.03 | 0.75 |
| FC(F)(F)C(F)(F)C(F)(F)C(F)(F)C(F)(F)C(F)(F)CCc1ccc(P(c2ccccc2)c2ccc(CCC(F)(F)C(F)(F)C(F)(F)C(F)(F)C(F)(F)C(F)(F)F)cc2)cc1 [Compound 1b, Phenyl-bis-[4-(3,3,4,4,5,5,6,6,7,7,8,8,8-tridecafluorooctyl)phenyl]phosphane] | 42.1 to 43.1 °C | 0.05 | 1.86 | 0.05 |
| FC(F)(F)C(F)(F)C(F)(F)C(F)(F)C(F)(F)C(F)(F)CCc1ccc(P(c2ccccc2)c2ccccc2)cc1 [Compound 1c, Diphenyl-[4-(3,3,4,4,5,5,6,6,7,7,8,8,8-tridecafluorooctyl)phenyl]phosphane] | – | 0.02 | 0.12 | 0.05 |
| FC(F)(F)C(F)(F)C(F)(F)C(Cc1ccc(P(c2ccc(CC(C(F)(F)F)(C(F)(F)F)C(F)(F)C(F)(F)C(F)(F)F)cc2)c2ccc(CC(C(F)(F)F)(C(F)(F)F)C(F)(F)C(F)(F)C(F)(F)F)cc2)cc1)(C(F)(F)F)C(F)(F)F [Compound 5a, Tris-[4-(3,3,4,4,5,5,5-heptafluoro-2,2-bis-trifluoromethylpentyl)phenyl]phosphane] | – | 0.51 | 18.48 | 6.84 |
| FC(F)(F)C(F)(F)C(F)(F)C(Cc1ccc(P(c2ccccc2)c2ccc(CC(C(F)(F)F)(C(F)(F)F)C(F)(F)C(F)(F)C(F)(F)F)cc2)cc1)(C(F)(F)F)C(F)(F)F [Compound 5b, Phenyl-bis-[4-(3,3,4,4,5,5,5-heptafluoro-2,2-bis-rifluoromethylpentyl)phenyl]phosphane] | – | 1.05 | 3.34 | 0.18 |
| FC(F)(F)C(F)(F)C(F)(F)C(Cc1ccc(P(c2ccccc2)c2ccccc2)cc1)(C(F)(F)F)C(F)(F)F [Compound 5c, Diphenyl-[4-(3,3,4,4,5,5,5-heptafluoro-2,2-bis-trifluoromethylpentyl)phenyl]phosphane] | – | 0.01 | 0.09 | 0.12 |
